Experiment [1] deals with blue-stain fungi and molds. The experiment is described as follows: Activity against blue-stain fungi and molds on a stick test on vermiculite (paint film). The arrangement: key to Surface score of wooden sticks treated with paint formulation, C. cladosporioides / Surface score of wooden sticks treated with paint formulation, P. purpurogenum / Surface score of wooden sticks treated with paint formulation, P. violacea / Surface score of wooden sticks treated with paint formulation, R rubra (y) / Surface score of wooden sticks treated with paint formulation, S. chartarum / Surface score of wooden sticks treated with paint formulation, A. versicolor / Surface score of wooden sticks treated with paint formulation, A. pullulans: 0: No growth; Trace of growth of up to 1% coverage of the test inoculated area; 2: Growth covering between 1 and 10% of the inoculated test area; Growth covering between 10 and 30% of the inoculated test area; 4: Growth covering between 30 and 70% of the inoculated test area; 5: Growth covering more than 70t of the inoculated test area. The settings on record: 12 weeks on vermiculite; for Surface score of wooden sticks treated with paint formulation, R rubra (y): R rubra (yeast). On the procedure:
Beech sticks (73×18×2 mm) Fagus sylvatica were painted, allowed to dry, and sterilized by γ-radiation (1.2 mRad). […] The coated sticks prepared above were then dipped in a spore suspension of pure culture of each fungus. Seven sticks each were placed in autoclaved Petri dishes (200 mm in diameter, 30 mm in height) containing 300 ml of vermiculite and 120 ml of water, and incubated for 12 weeks. The surfaces of the sticks were then examined for the growth of fungus and were evaluated according to the following scoring system: 0: No growth 1: […] 2: […] 3: […] 4. […] 5. Growth covering more than 70t of the inoculated test area.

The test system of experiment [2] is mixed spore suspension of blue-stain fungus and molds. In words: Activity against blue-stain fungi and molds in a mold cabinet test (BS3900: Part G6). The arrangement: key: 0: No growth; Trace of growth of up to 1% coverage of the test inoculated area; 2: Growth covering between 1 and 10% of the inoculated test area; Growth covering between 10 and 30% of the inoculated test area; 4: Growth covering between 30 and 70% of the inoculated test area; 5: Growth covering more than 70t of the inoculated test area. On the procedure:
Using the methods described in BS3900: Part G6: 1989, British Standard Methods of test for paints, “Assessment of resistance to fungal growth”, representative compounds of this invention were tested for activity against blue-stain fungus and molds in a mold cabinet test. In brief, sticks of Scots pine (Pinus sylvestris) measuring 75×100×10 mm, were painted, allowed to dry, and sterilized by […] (1.2 mRad). […] The sticks were then with each solution. The inoculation consisted of dipping the sticks in a mixed spore suspension, then placing them in a mold chamber and incubating them for 12 weeks. The surfaces were evaluated according the following score system: 0: No growth 1: […] 2: […] 3: […] 4. […] 5. Growth covering more than 70% of the inoculated test area.

Experiment [3] relates to mixed spore suspension: Aureobasidium pullulans, Aspergillus amstelodami, Ceratocystis pilifera, Cladosporium sp., Penicillium sp., Sclerophomas entoxylina …. The experiment is described as follows: Control of molds and sapstain fungi in mini-board test. From the text: Representative compounds of this invention to be tested, were suspended in an aqueous solution containing 7.5% GENAPOL X 080™ (Hoechst-Celanese Corporation), and 20% propylene glycol monomethyl ether, to prepare the test solutions. […]
Deep frozen boards (300×50×10 mm) of freshly felled sapwood of Pinus sylvestrus (mini-boards) were thawed at room temperature. One half of each mini-board was immersed in a test solution for 20 seconds. The mini-boards were then sprayed with mixed spore suspension containing the following fungi:
Sclerophomas entoxylina, and
and stored in incubation boxes at 25° C. and at 100% relative humidity, for three weeks. For each compound tested, each concentration of test solution was applied to five different mini-boards.
The efficacy of the test compounds was determined by comparing the fungal growth on both the treated and untreated parts of the mini-boards.
The degree of infection was scored according to the following scale:
1=Traces of fungal growth
4=Vigorous to maximum growth (all surfaces covered with fungal growth)

The values below come from patent publication US6372297B1, “Wood preservative oxathiazines” (Uniroyal Chemical Company, Inc., priority 1993, dated 2002).

As to `O=S1(=O)CCON=C1c1ccc(Br)s1` [Compound 38], in experiment [1] (0.15% a.i. in paint), the “Surface score of wooden sticks treated with paint formulation, A. pullulans” value (from here on “Surface score … A. pullulans”) was 2 (Growth covering between 1 and 10% of the inoculated test area); the “Surface score of wooden sticks treated with paint formulation, A. versicolor” value (shortened to “Surface score … A. versicolor”) was 1 (Trace of growth of up to 1% coverage of the test inoculated area); the “Surface score of wooden sticks treated with paint formulation, C. cladosporioides” value (“Surface score … C. cladosporioides” for short) was 2 (Growth covering between 1 and 10% of the inoculated test area); the “Surface score of wooden sticks treated with paint formulation, P. purpurogenum” value (“Surface score … P. purpurogenum” for short) was 3 (Growth covering between 10 and 30% of the inoculated test area). Moreover, in experiment [1] (0.15% a.i. in paint), the “Surface score of wooden sticks treated with paint formulation, P. violacea” value (from here on “Surface score … P. violacea”) was 4 (Growth covering between 30 and 70% of the inoculated test area); the “Surface score of wooden sticks treated with paint formulation, R rubra (y)” value (from here on “Surface score of wooden sticks treated … (y)”) is 3 (Growth covering between 10 and 30% of the inoculated test area); the “Surface score of wooden sticks treated with paint formulation, S. chartarum” value (from here on “Surface score … S. chartarum”) is given as 5 (Growth covering more than 70t of the inoculated test area); the “Surface score of wooden sticks treated with paint formulation, U. atrum” value (shortened to “Surface score … U. atrum”) is 4 (Growth covering between 30 and 70% of the inoculated test area). Also, in experiment [1] (0.3% a.i. in paint), the “Surface score … A. pullulans” value came to 0; the “Surface score … A. versicolor” value is given as 0; the “Surface score … C. cladosporioides” value was 0; the “Surface score … P. purpurogenum” value is 3 (Growth covering between 10 and 30% of the inoculated test area). For the same molecule, in experiment [1] (0.3% a.i. in paint), the “Surface score … P. violacea” value was 4 (Growth covering between 30 and 70% of the inoculated test area); the “Surface score of wooden sticks treated … (y)” value was 0; the “Surface score … S. chartarum” value was 2 (Growth covering between 1 and 10% of the inoculated test area); the “Surface score … U. atrum” value is 3 (Growth covering between 10 and 30% of the inoculated test area). In addition, in experiment [2] (0.15% in water-based paint), the “Surface score in a paint formulation in a mold cabinet test, 6 weeks” value (“Surface score in a paint formulation … 6 weeks” below) is reported as 2.5 and the “Surface score in a paint formulation in a mold cabinet test, 12 weeks” value (shortened to “Surface score in a paint formulation … 12 weeks”) is given as 4.5. For the same molecule, in experiment [2] (0.3% in water-based paint), the “Surface score in a paint formulation … 6 weeks” value is reported as 2.5 and the “Surface score in a paint formulation … 12 weeks” value turned out to be 4.0. Moreover, in experiment [3], the “Surface score of treated mini-boards, 3 week incubation, 1500 ppm” value is 0.6; the “Surface score of treated mini-boards, 6 week incubation, 1500 ppm” value was 2.0; the “Surface score of treated mini-boards, 3 week incubation, 2500 ppm” value stood at 0.4; the “Surface score of treated mini-boards, 6 week incubation, 2500 ppm” value is recorded as 2.8.

In the case of `[O-][S+]1CCON=C1c1cc(Br)cs1` (stereo not drawn) [Compound 41], in experiment [1] (0.15% a.i. in paint), the “Surface score … A. pullulans” value came to 0; the “Surface score … A. versicolor” value is recorded as 0; the “Surface score … C. cladosporioides” value turned out to be 0; the “Surface score … P. purpurogenum” value is 2 (Growth covering between 1 and 10% of the inoculated test area). In experiment [1] (0.15% a.i. in paint), the “Surface score … P. violacea” value was 4 (Growth covering between 30 and 70% of the inoculated test area); the “Surface score of wooden sticks treated … (y)” value is 3 (Growth covering between 10 and 30% of the inoculated test area); the “Surface score … S. chartarum” value is 4 (Growth covering between 30 and 70% of the inoculated test area); the “Surface score … U. atrum” value was 3 (Growth covering between 10 and 30% of the inoculated test area). In experiment [1] (0.3% a.i. in paint), the “Surface score … A. pullulans” value turned out to be 0; the “Surface score … A. versicolor” value was 0; the “Surface score … C. cladosporioides” value is on record as 0; the “Surface score … P. purpurogenum” value is on record as 1 (Trace of growth of up to 1% coverage of the test inoculated area). Also, in experiment [1] (0.3% a.i. in paint), the “Surface score … P. violacea” value was 3 (Growth covering between 10 and 30% of the inoculated test area); the “Surface score of wooden sticks treated … (y)” value stood at 0; the “Surface score … S. chartarum” value turned out to be 0; the “Surface score … U. atrum” value is 1 (Trace of growth of up to 1% coverage of the test inoculated area). Moreover, in experiment [2] (0.15% in water-based paint), the “Surface score in a paint formulation … 6 weeks” value is reported as 0 and the “Surface score in a paint formulation … 12 weeks” value stood at 2.0. In experiment [2] (0.3% in water-based paint), the “Surface score in a paint formulation … 6 weeks” value is on record as 0.5 and the “Surface score in a paint formulation … 12 weeks” value amounted to 3.0. In experiment [3], the “Surface score of treated mini-boards, 3 week incubation, 1500 ppm” value amounted to 0.6; the “Surface score of treated mini-boards, 6 week incubation, 1500 ppm” value is listed as 2.4; the “Surface score of treated mini-boards, 3 week incubation, 2500 ppm” value is on record as 0.2; the “Surface score of treated mini-boards, 6 week incubation, 2500 ppm” value is reported as 1.6.
